The source of these data is PMC7955127, “Preclinical small molecule WEHI-7326 overcomes drug resistance and elicits response in patient-derived xenograft models of human treatment-refractory tumors” (Cell Death & Disease, 2021).

One data set concerns LIM 2537. Description: Cell growth inhibition assay, LIM 2537. As to conditions: Homo sapiens; LIM 2537, colon carcinoma; 72 h viability assay, CellTiterGlo; mean of 3 ± SEM; read-out: IC50 (inhibition of cellular proliferation). It counts as cell-based. The method, then:
(§1) Cells were plated at a density of between 500 to 5000 cells per well for adherent cell lines depending on doubling time, and 15,000 cells per well for lymphoblastic leukemia cell lines, in a 96-well plate in 200 μl of growth media. Plates were incubated overnight at 37 °C before adding the inhibitors. Inhibitors were serially diluted from the stock solutions in complete medium and added to the cells. […] Cell viability was assessed by the AlamarBlue (Invitrogen) or CellTiterBlue/Glo (Promega) method according to manufacturer’s instructions. The curve fits and IC50 values were generated in PRISM (GraphPad, San Diego, CA).
Background: Cellular ATP, detected with luciferase, serves as a proxy for viable cell number.

The test system of another data set is U87MGΔ2–7. Description: Cell growth inhibition assay, U87MGΔ2–7. It counts as cell-based. As to conditions: Homo sapiens; U87MGΔ2–7, glioblastoma expressing activated EGFR; 72 h viability assay, CellTiterGlo; mean of 3 ± SEM; read-out: IC50 (inhibition of cellular proliferation). The method, then: as §1
A short description of another data set: Plasma protein binding. Type of data set: in vitro ADME. As to conditions: mouse plasma. The source says: a Measured physicochemical and solubility data for WEHI-7326. […] Microsomal-predicted EH values are included.
Another data set concerns 134183 HGSOC PDX. Description: HGSOC PDX model 134183. It counts as in vivo, NSG mice. As to conditions: 134183 platinum-sensitive PDX; 20 mg/kg i.v. biweekly, 6 weeks. The method, then:
Two to three mm ovarian tumor fragments were subcutaneously engrafted in the left flank of NSG mice and monitored by physical palpation for tumor growth and engraftment. Engrafted tumors were measured twice a week using digital Vernier calipers and maximum tumor diameter + perpendicular tumor length were digitally recorded into the Study Director software (v 3.0/4.0 StudyLog). Tumor volume was calculated automatically (tumor volume (mm^3) = 0.5236 x [larger diameter (mm) x smaller diameter (mm)^2]). Mice were randomized to treatment once their tumor volume reach 180–300 mm^3 and tumor measurements were performed twice a week up to 120 days or when the tumor volume reaches 700 mm^3.
Time to progressive disease (PD): Defined as the time (in days) from beginning of treatment to an increase in average tumor volume of >20% from the nadir (taken as the smallest average tumor volume recorded since treatment started or 200 mm^3 if nadir was <200 mm^3 as lesions smaller than this are difficult to measure with accuracy). Median time to harvest (TTH): Defined as the time (in days) from the beginning of treatment to day of harvest at 700 mm^3 and the median TTH was calculated and plotted using Kaplan-Meier curves. Based on ref. [27]. […]

The subject of data set [1] is COG-N-496x neuroblastoma PDX. Description: High-risk neuroblastoma PDX COG-N-496x. Type of data set: in vivo, NSG mice. Conditions: COG-N-496x PDX; 20 mg/kg i.v. twice weekly. The method, then:
All animal studies were performed in accordance with the guidelines approved by University of New South Wales Animal Care and Ethics Committee (ACEC 17/53B) and in accordance with the requirements of the Australian Code for the Care and Use of Animals for Scientific Purposes. PDX models COG-N-440x and COG-N-496x were obtained from the Childhood Cancer Repository, Texas Tech University Health Sciences Center in Lubbock, TX, USA. 6–8 week old female NSG mice were engrafted by subcutaneous injection with 1 × 10^6 freshly thawed PDX tumor cells into one flank in a mixture of 100 μl RPMI-1640 and 100 μl Matrigel. Mice were monitored for tumor development three times weekly and tumor size measured using digital Vernier calipers. Treatments commenced when tumors reached 50 mm^3, following randomization into treatment arms. […] Mice were treated with either vincristine (0.5 mg/kg, once weekly i.p. in sterile saline for up to 5 weeks), WEHI-7326 (20 mg/kg; twice weekly i.v. in sterile saline for up to 5 weeks) or vehicle (as for WEHI-7326). For the Th-MYCN transgenic mouse model, spontaneous tumor growth in mice homozygous for the MYCN transgene was assessed by abdominal palpation at least twice a week. Treatments commenced once a small palpable tumor (~5 mm) was detected, following randomization to treatment arms. Mice were euthanized upon detection of an abdominal tumor of ~1 cm in diameter. […]

With `COc1ccc(CNc2nc(NCc3ccc(CN)cc3)nc(NN3CC(=O)NC3=O)n2)cc1` [WEHI-7326], in the data set on LIM 2537, the IC50 was 58.9 ± 7.5 nM. Also, the IC50 in the data set with U87MGΔ2–7 was found to be 6.1 ± 1.6 nM. The Protein binding in “Plasma protein binding” stood at 61 % bound. In the data set on 134183 HGSOC PDX, the “Median time to harvest (TTH)” value is “lack of improvement” and the “Time to progressive disease (PD)” value is on record as 53 days. Besides, in data set [1], the Median survival was found to be 25 days.
